Reference: a melting point compilation (Tetko et al.; mined from patent text by program, amines drawn as free bases though some values may be those of a salt)

`CCOC(=O)CC(=O)c1c(F)c(F)c(N2CCC(NC(C)=O)C2)c(F)c1F` (stereo unspecified) gave a melting point of 90 to 92 °C. In the case of `NC(=O)c1cc2c(SCc3ccc(Cl)cc3)cncc2s1`, the melting point is reported as 198 to 199 °C. With `O=C(NCCCO)c1ccnc2ccccc12` the melting point was 201 to 202 °C. In the case of `CC1(C)C(=O)Oc2ccc3ccc(Cn4cncn4)cc3c21`, the melting point is reported as 136 to 137 °C. With `CCCC[C@@H]1CCc2ccc(OCc3ccc4ccccc4n3)cc2[C@H]1O` the melting point was 58 to 59 °C. Work on `CCOC(=O)Cc1c[nH]c2cc(C3CC3)nn2c1=O` yielded a melting point of 280 to 283 °C. `CCNc1cc(-c2c(-c3cccc(C)c3)nc3cccnn23)ccn1` gave a melting point of 151 to 153 °C. Compound `CS(=O)(=O)c1ccc(C(=O)C2C(=O)CCCC2=O)c(Cl)c1OCc1cc(-c2ccccc2)no1` has a melting point of 72 to 78 °C. `COc1ccc2c(c1O)CCN(C=O)[C@@H]2c1cc(OC)c(OC)c(OC)c1` showed a melting point of 190 to 192 °C. With `Cn1ccc2c(-n3cc(C(=O)O)c4cccnc43)ncnc21` the melting point was over 260 °C. `O=C(NCCNCC(O)COc1ccc(O)cc1F)C1CCOCC1` (stereo unspecified) showed a melting point of 101 to 104 °C. With `O=C(O)C1=Cc2cc(-c3ccc(Br)cc3)ccc2OC1C(F)(F)F` (stereo unspecified) the melting point was 215 to 216 °C. With `COC(=O)c1ccc(C(=O)N2CCN(c3ncccc3[N+](=O)[O-])CC2)nc1` the melting point was 129 to 130 °C. In the case of `OCCSC/C=C/c1ccc(Cc2cccnc2)cc1`, the melting point is reported as 73 to 74 °C. Compound `CCCCOc1cc(C(CC(=O)OC)N2C(=O)c3ccccc3C2=O)ccc1OC` (stereo unspecified) has a melting point of 54 to 55 °C. Compound `Cc1cc(CN2CCNC2=C[N+](=O)[O-])on1` has a melting point of 168 to 170 °C. For `CN(C)C=C1C(=O)OC(=O)c2ccccc21`, the melting point was 137 to 140 °C. `CCOc1nn(Cc2ccccc2OCc2nc(-c3ccccc3)oc2C)cc1CCC(=O)O` gave a melting point of 127 to 128 °C. `Clc1ccc(C2NN=C(c3cccnc3)S2)cc1` (stereo unspecified) gave a melting point of 108 to 110 °C. In the case of `COCC(=O)C1CCC2C3CCC4CC(O)CCC4(C)C3CCC12C` (stereo unspecified), the melting point is reported as 163 to 164 °C. `O=C(O)CCc1cnoc1-c1cc(Cl)c(Cl)s1` gave a melting point of 142 to 143 °C. In the case of `NS(=O)(=O)c1cccc(-c2ccco2)c1`, the melting point is reported as 197 to 198 °C. Work on `CC1Cc2cccc(S(N)(=O)=O)c2OS1(=O)=O` (stereo unspecified) yielded a melting point of 185 to 186 °C. For `CN1CCC2(CC1)Nc1cc(Cl)c(Cl)cc1-n1cccc12`, the melting point was 214 to 215 °C. For `COC(=O)C1=Cc2cc(-c3ccc(C(C)C)cc3)ccc2S(=O)(=O)CC1`, the melting point was 142 to 144 °C. For `COc1cc(OC)c2c(=O)[nH]c(-c3cc(C)c(OCCN4CCCC4)c(C)c3)nc2c1`, the melting point was 181 to 183 °C. Compound `Cc1cccc(-c2c(CC(=O)Nc3ccc(F)cc3C(F)(F)F)c(=O)oc3cc4c(cc23)CC=C4)c1` has a melting point of 196 to 197 °C. For `COCC1CN(c2ccc3cc(S(N)(=O)=O)ccc3c2)C(=O)O1` (stereo unspecified), the melting point was 166 to 168 °C. In the case of `CC(C)(C)c1cc(CS[C@@H]2CCCCCC[C@H]2SCc2cc(C(C)(C)C)cc(C(C)(C)C)c2O)c(O)c(C(C)(C)C)c1` (relative stereo), the melting point is reported as 122 to 123 °C. `N#Cc1c(-c2ccc(Cl)cc2)[nH]c(C(F)(F)F)c1Sc1ccc(Cl)c(Cl)c1` gave a melting point of 94 to 97 °C. With `CCOC(=O)Nc1ccc(C)c(Cl)c1` the melting point was 51 to 52 °C. Compound `N#CC1=C(Nc2ccc(F)c(F)c2)CCC1` has a melting point of 126 to 128 °C. `OCCN(CCO)Cc1nnc2n1-c1ccc(Cl)cc1C(c1ccccc1)=NC2` showed a melting point of 84 to 87 °C. In the case of `Fc1ccc(C(=C(c2ccccc2)c2ccc(OCCN3CCOCC3)cc2)C(F)(F)F)cc1`, the melting point is reported as 67 to 69 °C. Work on `CCC(=O)N(Cc1ccc(OC(F)(F)F)cc1)c1cc(Cl)cc(-c2nnn[nH]2)c1` yielded a melting point of 144 °C. For `CC1(C)c2ccccc2C(C)(C)C1(S)CC#N`, the melting point was 113 to 114 °C. Work on `CSc1ccc(Cc2cccc(-c3c(O)c4ccc(Cl)cc4[nH]c3=O)c2)cc1` yielded a melting point of 296 to 297 °C. `CCCn1c(=O)c2nc(C(C)Cc3ccc(OCC(=O)NCCN)cc3)[nH]c2n(CCC)c1=O` (stereo unspecified) showed a melting point of 143 to 144 °C. `COCCOCc1nn2c(-c3ccc(OC)cc3)nnc2c2ccccc12` showed a melting point of 129 to 131 °C. Compound `C=CCNC(=O)[C@H]1CN(c2ccc(N3CCOCC3)c(F)c2)C(=O)O1` has a melting point of 167 to 169 °C. Work on `O=C(O)c1ccc(C(F)(F)F)c([N+](=O)[O-])c1` yielded a melting point of 156 to 158 °C. In the case of `CC(=O)Nc1cc(NS(=O)(=O)CCl)c(Cl)cc1F`, the melting point is reported as 210 °C. Work on `CC(C)(C)CC(=O)Nc1ccc2oc3c(c2c1)CCCCCC3` yielded a melting point of 157 to 158 °C. `NNC(=O)c1ccccc1-c1ccc(N)cc1` showed a melting point of 135 to 137 °C. For `O=C(O)c1nnc2ccc(NCCCN3CCC(OC(c4ccccc4)c4ccccc4)CC3)nn12`, the melting point was 102 to 104 °C. `CC(C)(C)OC(=O)NCCNC(=O)c1cc(Cl)cc(Cl)n1` showed a melting point of 126 to 127 °C. For `O=C(CC1CSCCC1=O)c1ccccc1` (stereo unspecified), the melting point was 102 to 104 °C. `C=CCOc1ccc(Cl)c2c(=O)c3ccccc3sc12` showed a melting point of 135 to 136 °C. `CCCCc1nc(C(F)(F)F)c(C(=O)OCC)n1O` gave a melting point of 77.5 to 80.5 °C. For `CCCCOc1ccc([N+](=O)[O-])c(CO)c1`, the melting point was 47 to 49 °C. With `O=c1cc2c(nn1-c1ccc(Cl)cc1)-c1ccccc1S(=O)CC2` (stereo unspecified) the melting point was 233 to 234 °C.
